# What was measured:
# [1] = system: platelet-poor blood plasma; assay: Clot initiation in a 25 mm column of non-flowing platelet-poor blood plasma; type: biochemical
# Experimental: Thr-CaCO3 was mixed at a 1:1 mass ratio with TXA-NH3^+ to yield a propelling particle mixture. A non-propelling mixture consisted of a 1:1 ratio of Thr-CaCO3 with lyophilized TXA-NH2. The ability of the two mixtures to initiate clotting in platelet-poor blood plasma was measured and compared against addition of a similar amount of thrombin (approximately 1 pmol) in HEPES buffer and a control receiving no treatment.
# The ability of particles to clot both at the site of application and below the site was assessed by injecting particles near the top of a column of plasma that was 25 mm tall. Initiation of clotting was measured both at the top and the bottom of the column by monitoring the formation of fibrin. The blood plasma was laced with green-fluorescent beads in order to monitor movement and formation of solid fibrin mesh and clot initiation. Clotting at the top was measured visually, and when the plasma became opaque or appeared gelled, clotting was confirmed by gentle manipulation with a micropipette.
# Both propelling and non-propelling particles immediately clotted plasma at the top of the column, which was detected within 2 min. The same response occurred when a solution containing an equivalent amount of dissolved thrombin was added. However, there were much larger differences in the clot times at the bottom of the columns of plasma between these samples.
# Clotting took about 30 min, as the clot needed to propagate down through the column by diffusion. Clotting at the bottom was faster using non-propelled particles, occurring in 3.7 min as compared to 10 min for the propelled particles. […] Most propelled particles reacted and produced gas at the top so only a fraction of the particles sank to the bottom yielding a slightly slower clot time compared to non-propelling particles. Although the propelled particles out-performed the thrombin solution in this assay, a particular advantage for the propelling particles would come from an ability to propel though flowing solutions.
# [2] = system: flowing plasma; assay: Clotting and occlusion of plasma flowing through a glass capillary tube; type: biochemical
# Experimental: To show propelling thrombin particles clotting flowing plasma, particles were applied to the bottom of plasma flowing through a glass capillary tube (FIG. 3D,E). A microfluidic system was used to control the flow of plasma, and monitor the flow to determine when clotting occluded flow in the capillary tube. At flow velocities between 0.006 and 3.4 mm/s, the background occlusion times in the system were approximately 30 min. […] At high flows, the clot was easily pushed out and the flow of plasma resumed. […] The particles propelled upwards, against flow, and accumulated high within the tubing. Clotting was seen to initiate at regions with the highest concentration of particles.
substance,measurement,setting,value
thrombin [thrombin solution],acceleration of clot initiation at the bottom compared to the control,[1]; bottom of 25 mm column,no acceleration of clot initiation
same,clot time at the bottom of the column,"[1]; bottom of 25 mm column, non-flowing plasma",about 30 min
same,clot time at the top of the column,"[1]; site of application, non-flowing plasma",same response
same,flow velocity up to which occlusion occurred,[2],up to 0.06 mm/s
same,occlusion versus controls at 0.6 mm/s,[2]; flow velocity 0.6 mm/s,no difference from controls

# Source: patent publication US12226520B2, “Self-fueled particles for propulsion through flowing aqueous fluids” (The University of British Columbia, priority 2013, dated 2025)
